biological target: T1, Cannabinoid-1 receptor (CB1R) (Rattus norvegicus, UniProt P20272); assay: Cannabinoid-1 receptor (CB1R) binding affinity assay ([3H]CP-55940, rat CB-1 receptor binding protocol); details: brain tissue of SD rats, [3H]CP-55940, 30° C. 60 min; read-out: IC50
T1 construct: The tissue obtained from the brain of SD rats was homogenized; from tissue; host or cells: brain of SD rats (membrane pellet of the homogenate)
T1 sequence (P20272 whole entry): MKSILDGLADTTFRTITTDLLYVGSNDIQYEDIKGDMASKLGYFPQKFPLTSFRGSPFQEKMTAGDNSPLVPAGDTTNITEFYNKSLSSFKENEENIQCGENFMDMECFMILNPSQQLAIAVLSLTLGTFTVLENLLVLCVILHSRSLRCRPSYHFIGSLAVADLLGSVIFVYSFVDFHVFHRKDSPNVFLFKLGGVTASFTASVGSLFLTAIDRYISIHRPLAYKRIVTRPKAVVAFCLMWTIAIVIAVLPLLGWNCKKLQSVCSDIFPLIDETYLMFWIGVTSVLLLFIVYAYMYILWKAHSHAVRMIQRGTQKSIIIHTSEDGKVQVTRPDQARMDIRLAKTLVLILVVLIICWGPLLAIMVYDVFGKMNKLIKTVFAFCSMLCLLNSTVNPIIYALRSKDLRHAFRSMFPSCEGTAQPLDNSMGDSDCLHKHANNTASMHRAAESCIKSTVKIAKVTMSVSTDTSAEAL

How did the IC50 turn out when `CC(C)(C)c1nnc(-c2nn(-c3ccc(Cl)cc3Cl)c(-c3ccc(Cl)cc3)c2Cn2cnnn2)o1` [Example 300, 2-(4-((1H-tetrazol-1-yl)methyl)-5-(4-chlorophenyl)-1-(2,4-dichlorophenyl)-1H-pyrazol-3-yl)-5-tert-butyl-1,3,4-oxadiazole] was run?
The IC50 was 0.00337 µM.

How did the IC50 turn out when `CC(C)(C)c1nnc(-c2nn(-c3ccc(Cl)cc3Cl)c(-c3ccc(Cl)cc3)c2Cn2cnnn2)o1` [Example 301, 2-(4-((1H-tetrazol-1-yl)methyl)-5-(4-chlorophenyl)-1-(2,4-dichlorophenyl)-1H-pyrazol-3-yl)-5-tert-butyl-1,3,4-oxadiazole] was run?
Its IC50 is 0.00764 µM.

`CC(C)(C)c1nnc(-c2nn(-c3ccc(Cl)cc3Cl)c(-c3ccc(Br)cc3)c2Cn2ncnn2)o1` [Example 302, 2-(4-((2H-tetrazol-2-yl)methyl)-5-(4-bromophenyl)-1-(2,4-dichlorophenyl)-1H-pyrazol-3-yl)-5-tert-butyl-1,3,4-oxadiazole] was tested. Which IC50 did it give?
Its IC50 is 0.00644 µM.

For `CC(C)(C)c1nnc(-c2nn(-c3ccc(Cl)cc3Cl)c(-c3ccc(Br)cc3)c2Cn2cnnn2)o1` [Example 303, 2-(4-((1H-tetrazol-1-yl)methyl)-5-(4-bromophenyl)-1-(2,4-dichlorophenyl)-1H-pyrazol-3-yl)-5-tert-butyl-1,3,4-oxadiazole], which IC50 is on record?
Its IC50 is 0.012 µM.

For `CC(C)(C)c1nnc(-c2nn(-c3ccc(Cl)cc3Cl)c(-c3ccc(Cl)cc3)c2Cn2ccnn2)o1` [Example 304, 2-(4-((1H-1,2,3-triazol-1-yl)methyl)-5-(4-chlorophenyl)-1-(2,4-dichlorophenyl)-1H-pyrazol-3-yl)-5-tert-butyl-1,3,4-oxadiazole], which IC50 is on record?
Its IC50 is 0.0128 µM.

With `CC(C)(C)c1nnc(-c2nn(-c3ccc(Cl)cc3Cl)c(-c3ccc(Cl)cc3)c2CN2C(=O)CCC2=O)o1` [Example 305, 1-((3-(5-tert-butyl-1,3,4-oxadiazol-2-yl)-5-(4-chlorophenyl)-1-(2,4-dichlorophenyl)-1H-pyrazol-4-yl)methyl)pyrrolidine-2,5-dione] as the molecule, how does the IC50 read?
Its IC50 is 0.287 µM.

How did the IC50 turn out when `CC(C)(C)c1nnc(-c2nn(-c3ccc(Cl)cc3Cl)c(-c3ccc(Cl)cc3)c2CN2CCCC2=O)o1` [Example 306, 1-((3-(5-tert-butyl-1,3,4-oxadiazol-2-yl)-5-(4-chlorophenyl)-1-(2,4-dichlorophenyl)-1H-pyrazol-4-yl)methyl)pyrrolidin-2-one] was run?
The IC50 was 0.0939 µM.

How did the IC50 turn out when `CC(C)(C)c1nnc(-c2nn(-c3ccc(Cl)cc3Cl)c(-c3ccc(Cl)cc3)c2CN2CCOC2=O)o1` [Example 307, 3-((3-(5-tert-butyl-1,3,4-oxadiazol-2-yl)-5-(4-chlorophenyl)-1-(2,4-dichlorophenyl)-1H-pyrazol-4-yl)methyl)oxazolidin-2-one] was run?
Its IC50 is 0.125 µM.

With `CC(=O)SCc1c(-c2nnc(C(C)(C)C)o2)nn(-c2ccc(Cl)cc2Cl)c1-c1ccc(Cl)cc1` [Example 308, S-(3-(5-tert-butyl-1,3,4-oxadiazol-2-yl)-5-(4-chlorophenyl)-1-(2,4-dichlorophenyl)-1H-pyrazol-4-yl)methyl ethanethioate] as the molecule, how does the IC50 read?
The IC50 was 0.0207 µM.

Which IC50 does the source give for `CC(C)(C)c1nnc(-c2nn(-c3ccc(Cl)cc3Cl)c(-c3ccc(Cl)cc3)c2CC#N)o1` [Example 310, 2-(3-(5-tert-butyl-1,3,4-oxadiazol-2-yl)-5-(4-chlorophenyl)-1-(2,4-dichlorophenyl)-1H-pyrazol-4-yl)acetonitrile] here?
The IC50 was 0.00612 µM.

Which IC50 does the source give for `CSCc1c(-c2nnc(C(C)(C)C)o2)nn(-c2ccc(Cl)cc2Cl)c1-c1ccc(SC)cc1` [Example 311, 2-tert-butyl-5-(1-(2,4-dichlorophenyl)-5-(4-(methylthio)phenyl)-4-(methylthiomethyl)-1H-pyrazol-3-yl)-1,3,4-oxadiazole] here?
The IC50 was 0.0258 µM.

With `Clc1ccc(-c2c(Cn3cncn3)c(-c3nnc(C4(c5ccc(Cl)cc5)CC4)o3)nn2-c2ccc(Cl)cc2Cl)cc1` [Example 313, 2-(4-((1H-1,2,4-triazol-1-yl)methyl)-5-(4-chlorophenyl)-1-(2,4-dichlorophenyl)-1H-pyrazol-3-yl)-5-(1-(4-chlorophenyl)cyclopropyl)-1,3,4-oxadiazole] as the molecule, how does the IC50 read?
The IC50 was 0.00221 µM.

With `Clc1ccc(-c2c(Cn3cncn3)c(-c3nnc(C4CCC4)o3)nn2-c2ccc(Cl)cc2Cl)cc1` [Example 315, 2-(4-((1H-1,2,4-triazol-1-yl)methyl)-5-(4-chlorophenyl)-1-(2,4-dichlorophenyl)-1H-pyrazol-3-yl)-5-cyclobutyl-1,3,4-oxadiazole] as the molecule, how does the IC50 read?
The IC50 was 0.00342 µM.

Which IC50 does the source give for `Clc1ccc(-c2c(Cn3cncn3)c(-c3nnc(C4CCCCC4)o3)nn2-c2ccc(Cl)cc2Cl)cc1` [Example 316, 2-(4-((1H-1,2,4-triazol-1-yl)methyl)-5-(4-chlorophenyl)-1-(2,4-dichlorophenyl)-1H-pyrazol-3-yl)-5-cyclohexyl-1,3,4-oxadiazole] here?
Its IC50 is 0.00342 µM.

With `COc1ccc(C2(c3nnc(-c4nn(-c5ccc(Cl)cc5Cl)c(-c5ccc(Cl)cc5)c4Cn4cncn4)o3)CC2)cc1` [Example 319, 2-(4-((1H-1,2,4-triazol-1-yl)methyl)-5-(4-chlorophenyl)-1-(2,4-dichlorophenyl)-1H-pyrazol-3-yl)-5-(1-(4-methoxyphenyl)cyclopropyl)-1,3,4-oxadiazole] as the molecule, how does the IC50 read?
The IC50 was 0.00289 µM.

For `FC(F)(F)C1(c2nnc(-c3nn(-c4ccc(Cl)cc4Cl)c(-c4ccc(Cl)cc4)c3Cn3cncn3)o2)CCC1` [Example 321, 2-(4-((1H-1,2,4-triazol-1-yl)methyl)-5-(4-chlorophenyl)-1-(2,4-dichlorophenyl)-1H-pyrazol-3-yl)-5-(1-(trifluoromethyl)cyclobutyl)-1,3,4-oxadiazole], which IC50 is on record?
Its IC50 is 0.00173 µM.

`Clc1ccc(-c2c(Cn3cncn3)c(-c3nnc(C4(c5ccc(Cl)cc5)CCC4)o3)nn2-c2ccc(Cl)cc2Cl)cc1` [Example 322, 2-(4-((1H-1,2,4-triazol-1-yl)methyl)-5-(4-chlorophenyl)-1-(2,4-dichlorophenyl)-1H-pyrazol-3-yl)-5-(1-(4-chlorophenyl)cyclobutyl)-1,3,4-oxadiazole] was tested. Which IC50 did it give?
The IC50 was 0.00341 µM.

`Clc1ccc(-c2c(Cn3cncn3)c(-c3nnc(C4(c5ccccc5)CCCC4)o3)nn2-c2ccc(Cl)cc2Cl)cc1` [Example 323, 2-(4-((1H-1,2,4-triazol-1-yl)methyl)-5-(4-chlorophenyl)-1-(2,4-dichlorophenyl)-1H-pyrazol-3-yl)-5-(1-phenylcyclopentyl)-1,3,4-oxadiazole] was tested. Which IC50 did it give?
Its IC50 is 0.00529 µM.

Which IC50 does the source give for `Clc1ccc(-c2c(Cn3cncn3)c(-c3nnc(C4(c5ccc(Cl)cc5)CCCC4)o3)nn2-c2ccc(Cl)cc2Cl)cc1` [Example 324, 2-(4-((1H-1,2,4-triazol-1-yl)methyl)-5-(4-chlorophenyl)-1-(2,4-dichlorophenyl)-1H-pyrazol-3-yl)-5-(1-(4-chlorophenyl)cyclopentyl)-1,3,4-oxadiazole] here?
Its IC50 is 0.00466 µM.

`CC(C)(C)c1nnc(-c2nn(-c3ccccc3Cl)c(-c3ccc(Cl)cc3)c2Cn2cncn2)o1` [Example 325, 2-(4-((1H-1,2,4-triazol-1-yl)methyl)-1-(2-chlorophenyl)-5-(4-chlorophenyl)-1H-pyrazol-3-yl)-5-tert-butyl-1,3,4-oxadiazole] was tested. Which IC50 did it give?
The IC50 was 0.00226 µM.

For `CC(C)(C)c1nnc(-c2nn(-c3ccc(Cl)cc3Cl)c(-c3ccc(Br)cc3)c2Cn2cncn2)o1` [Example 329, 2-(4-((1H-1,2,4-triazol-1-yl)methyl)-5-(4-bromophenyl)-1-(2,4-dichlorophenyl)-1H-pyrazol-3-yl)-5-tert-butyl-1,3,4-oxadiazole], which IC50 is on record?
The IC50 was 0.00275 µM.

`CC(C)(C)c1nnc(-c2nn(-c3ccc(Cl)cc3Cl)c(-c3ccc(Cl)cc3)c2Cc2nnn[nH]2)o1` [Example 330, 2-(4-((1H-tetrazol-5-yl)methyl)-5-(4-chlorophenyl)-1-(2,4-dichlorophenyl)-1H-pyrazol-3-yl)-5-tert-butyl-1,3,4-oxadiazole] was tested. Which IC50 did it give?
Its IC50 is 0.897 µM.

`Cn1nnnc1Cc1c(-c2nnc(C(C)(C)C)o2)nn(-c2ccc(Cl)cc2Cl)c1-c1ccc(Cl)cc1` [Example 332, 2-tert-butyl-5-(5-(4-chlorophenyl)-1-(2,4-dichlorophenyl)-4-((1-methyl-1H-tetrazol-5-yl)methyl)-1H-pyrazol-3-yl)-1,3,4-oxadiazole] was tested. Which IC50 did it give?
Its IC50 is 0.0148 µM.

`Clc1ccc(-c2c(Cl)c(-c3nnc(C4CCC4)o3)nn2-c2ccc(Cl)cc2Cl)cc1` [Example 333, 2-(4-chloro-5-(4-chlorophenyl)-1-(2,4-dichlorophenyl)-1H-pyrazol-3-yl)-5-cyclobutyl-1,3,4-oxadiazole] was tested. Which IC50 did it give?
Its IC50 is 0.15 µM.

How did the IC50 turn out when `CCC(C)(C)c1nnc(-c2nn(-c3ccc(Cl)cc3Cl)c(-c3ccc(Cl)cc3)c2Cl)o1` [Example 334, 2-(4-chloro-5-(4-chlorophenyl)-1-(2,4-dichlorophenyl)-1H-pyrazol-3-yl)-5-tert-pentyl-1,3,4-oxadiazole] was run?
The IC50 was 0.051 µM.

For `Clc1ccc(-c2c(Cl)c(-c3nnc(C4CCCCC4)o3)nn2-c2ccc(Cl)cc2Cl)cc1` [Example 335, 2-(4-chloro-5-(4-chlorophenyl)-1-(2,4-dichlorophenyl)-1H-pyrazol-3-yl)-5-cyclohexyl-1,3,4-oxadiazole], which IC50 is on record?
Its IC50 is 0.512 µM.

How did the IC50 turn out when `CCC(C)c1nnc(-c2nn(-c3ccc(Cl)cc3Cl)c(-c3ccc(Cl)cc3)c2Cl)o1` (stereo not drawn) [Example 336, 2-sec-butyl-5-(4-chloro-5-(4-chlorophenyl)-1-(2,4-dichlorophenyl)-1H-pyrazol-3-yl)-1,3,4-oxadiazole] was run?
The IC50 was 0.207 µM.

For `CC(C)(C)c1nnc(-c2nn(-c3ccc(Cl)cc3Cl)c(-c3ccc(Cl)cc3)c2Cl)o1` [Example 337, 2-tert-butyl-5-(4-chloro-5-(4-chlorophenyl)-1-(2,4-dichlorophenyl)-1H-pyrazol-3-yl)-1,3,4-oxadiazole], which IC50 is on record?
The IC50 was 0.105 µM.

For `CC(C)(C)c1nnc(-c2nn(-c3ccc(Cl)cc3Cl)c(-c3ccc(Cl)cc3)c2Br)o1` [Example 338, 2-(4-bromo-5-(4-chlorophenyl)-1-(2,4-dichlorophenyl)-1H-pyrazol-3-yl)-5-tert-butyl-1,3,4-oxadiazole], which IC50 is on record?
The IC50 was 0.0304 µM.

Which IC50 does the source give for `CCC(C)c1nnc(-c2nn(-c3ccc(Cl)cc3Cl)c(-c3ccc(Cl)cc3)c2Br)o1` (stereo not drawn) [Example 339, 2-(4-bromo-5-(4-chlorophenyl)-1-(2,4-dichlorophenyl)-1H-pyrazol-3-yl)-5-sec-butyl-1,3,4-oxadiazole] here?
The IC50 was 0.0213 µM.

Source: patent publication US7875647B2, “Heteroaryl-pyrazole derivatives as cannabinoid CB1 receptor antagonists” (Green Cross Corporation, priority 2006, dated 2011)
